Experimental findings from patent US11884682B2, “Compounds and their uses as MIF inhibitors” (NANJING IMMUNOPHAGE BIOTECH CO., LTD., priority 2020, dated 2024) are described below.

In this assay the target is MIF (Homo sapiens (Human), UniProt P14174). Kind of assay: MIF tautomerase assay using pHPP as substrate. It is filed as biochemical. As to conditions: for Tautomerase Inhibition pIC50: cell-free, pHPP substrate 1.5 mM, MIF 3 nM, mean pIC50 of multiple test results; for IC50: read-out: Tautomerase Inhibition pIC50 (converted). The protocol:
Tautomerase Assay Using pHPP as substrate
This assay measured MIF's tautomerase activity in a cell-free system and was based on the determination of initial rates of the MIF-catalyzed conversion of the ketonic into the enolic tautomer of pHPP. This was achieved by spectrophotometric quantification of the complex between borate and the product of the reaction (enolic pHPP). The substrate was prepared by conversion of the enolic pHPP into its ketonic form. To achieve this, 0.5 M pHPP in methanol was diluted 10-fold with 50 mM sodium acetate buffer at pH 6.0, and then the suspension was shaken for 24 h at room temperature in darkness, and finally stored at 4° C. for not more than 1 week, with 5 min sonication being recommended before use.
Assays were performed in small-volume clear-bottom black 96 or 384-well polystyrene plates (Greiner Bio-One). First, 2 μL of the enzyme solution containing 6 nM of MIF in DPBS, 0.025% w/v BSA, and 300 μM CHAPS was dispensed onto sample and negative control wells using Multidrop Combi with metallic tip cassettes (Thermo Fisher Scientific) previously treated with Sigmacote. Then, 2 μL of the same buffer without MIF was dispensed onto positive control wells. The reaction was started by addition of the following to all wells: 2 μL of substrate solution containing 3 mM ketonic pHPP in 200 mM boric acid, 25 mM sodium phosphate, 0.025% w/v BSA, and 300 μM CHAPS at pH 6.0. In order to remove bubbles, the plate was centrifuged in an Allegra 25R centrifuge (Beckman Coulter, Inc., Brea, CA) at 1000 rpm for 2 min at room temperature. Then, the plate was read in an EnVision. Final concentrations of enzyme and substrate were 3 nM and 1.5 mM, respectively. Initial rates were calculated for each well as the slope of the absorbance progress curve.
The data mentioned below represents a mean pIC50 value of multiple test results. It is understood that the data illustrated below may have reasonable variation depending on the specific conditions and procedures used by the person conducting the testing.

Each structure is given as a SMILES string. Some results are limits rather than exact numbers.

Sequence of MIF (P14174 2-115): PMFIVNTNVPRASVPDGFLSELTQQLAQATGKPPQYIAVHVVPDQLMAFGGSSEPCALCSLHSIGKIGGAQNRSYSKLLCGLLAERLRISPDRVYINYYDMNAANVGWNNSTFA

For the molecule `COc1ccc(C(=O)Nc2nnc(-c3ccco3)o2)c(Cl)c1` [Compound 1, 2-chloro-N-(5-(furan-2-yl)-1,3,4-oxadiazol-2-yl)-4-methoxybenzamide], the “Tautomerase Inhibition pIC50” value is given as below 5.

With `COc1ccc(C(=O)Nc2nnc(-c3ccccc3)o2)c(OC)c1` [Compound 2, 2,4-dimethoxy-N-(5-phenyl-1,3,4-oxadiazol-2-yl)benzamide], the “Tautomerase Inhibition pIC50” value stood at 5.07.

On to `O=C(Nc1nnc(-c2ccco2)o1)[C@H]1CCN(Cc2ccccc2)C1` [Compound 3, (S)-1-benzyl-N-(5-(furan-2-yl)-1,3,4-oxadiazol-2-yl)pyrrolidine-3-carboxamide], for which the “Tautomerase Inhibition pIC50” value is recorded as below 5.

With `COc1ccc(C(=O)Nc2nnc(-c3ccc(O)cc3)o2)c(OC)c1` [Compound 4, N-(5-(4-hydroxyphenyl)-1,3,4-oxadiazol-2-yl)-2,4-dimethoxybenzamide], the “Tautomerase Inhibition pIC50” value is recorded as 5.58.

For `COc1ccc(C(=O)Nc2nnc(-c3ccsc3)o2)c(OC)c1` [Compound 5, 2,4-dimethoxy-N-(5-(thiophen-3-yl)-1,3,4-oxadiazol-2-yl)benzamide], the “Tautomerase Inhibition pIC50” value was 7.73.

As for `COc1ccc(C(=O)Nc2nnc(-c3sccc3C)o2)c(OC)c1` [Compound 7, 2,4-dimethoxy-N-(5-(3-methylthiophen-2-yl)-1,3,4-oxadiazol-2-yl)benzamide], the “Tautomerase Inhibition pIC50” value is recorded as below 5.

With `COc1ccc(C(=O)Nc2nnc(-c3sccc3F)o2)c(OC)c1` [Compound 8, N-(5-(3-fluorothiophen-2-yl)-1,3,4-oxadiazol-2-yl)-2,4-dimethoxybenzamide], the “Tautomerase Inhibition pIC50” value stood at 6.54.

In the case of `CCOc1ccccc1C(=O)Nc1nnc(-c2cccs2)o1` [Compound 10, 2-ethoxy-N-(5-(thiophen-2-yl)-1,3,4-oxadiazol-2-yl)benzamide], the “Tautomerase Inhibition pIC50” value is reported as 5.90.

Consider `COC(=O)c1ccccc1C(=O)Nc1nnc(-c2cccs2)o1` [Compound 12, methyl 2-((5-(thiophen-2-yl)-1,3,4-oxadiazol-2-yl)carbamoyl)benzoate], for which the “Tautomerase Inhibition pIC50” value is given as below 5.

Turning to `O=C(Cc1ccccc1)Nc1nnc(-c2cccs2)o1` [Compound 13, 2-phenyl-N-(5-(thiophen-2-yl)-1,3,4-oxadiazol-2-yl)acetamide], the “Tautomerase Inhibition pIC50” value is listed as below 5.

With `COc1ccc(C(=O)Nc2ccc(-c3ccco3)nn2)c(OC)c1` [Compound 14, N-(6-(furan-2-yl)pyridazin-3-yl)-2,4-dimethoxybenzamide], the “Tautomerase Inhibition pIC50” value is 5.91.

Take `COc1cc(O)ccc1C(=O)Nc1nnc(-c2cccs2)o1` [Compound 16, 4-hydroxy-2-methoxy-N-(5-(thiophen-2-yl)-1,3,4-oxadiazol-2-yl)benzamide]: the “Tautomerase Inhibition pIC50” value worked out at 7.09.

With `COc1cc(OCCOCc2ccccc2)ccc1C(=O)Nc1nnc(-c2cccs2)o1` [Compound 18, 4-(2-(benzyloxy)ethoxy)-2-methoxy-N-(5-(thiophen-2-yl)-1,3,4-oxadiazol-2-yl)benzamide], the “Tautomerase Inhibition pIC50” value amounted to 7.63.

As to `COc1cc(CCCC#N)ccc1C(=O)Nc1nnc(-c2cccs2)o1` [Compound 25, 4-(3-cyanopropyl)-2-methoxy-N-(5-(thiophen-2-yl)-1,3,4-oxadiazol-2-yl)benzamide], the “Tautomerase Inhibition pIC50” value is 7.68.

In the case of `COc1cc(CCCc2nn[nH]n2)ccc1C(=O)Nc1nnc(-c2cccs2)o1` [Compound 26, 4-(3-(2H-tetrazol-5-yl)propyl)-2-methoxy-N-(5-(thiophen-2-yl)-1,3,4-oxadiazol-2-yl)benzamide], the “Tautomerase Inhibition pIC50” value is reported as 7.95.

For the molecule `COc1cc([C@H]2CC[C@@H](C(=O)O)CC2)ccc1C(=O)Nc1nnc(-c2cccs2)o1` [Compound 27, Cis-4-(3-methoxy-4-((5-(thiophen-2-yl)-1,3,4-oxadiazol-2-yl)carbamoyl)phenyl)cyclohexane-1-carboxylic acid], the IC50 is 18.6 nM.

As for `COc1cc([C@H]2CC[C@H](C(=O)O)CC2)ccc1C(=O)Nc1nnc(-c2cccs2)o1` [Compound 28, Trans-4-(3-methoxy-4-((5-(thiophen-2-yl)-1,3,4-oxadiazol-2-yl)carbamoyl)phenyl)cyclohexane-1-carboxylic acid], the IC50 was 38 nM.

With `COc1cc(C2=CCC(C(=O)O)CC2)ccc1C(=O)Nc1nnc(-c2cccs2)o1` (centres unmarked) [Compound 29, 3′-methoxy-4′-((5-(thiophen-2-yl)-1,3,4-oxadiazol-2-yl)carbamoyl)-2,3,4,5-tetrahydro-[1,1′-biphenyl]-4-carboxylic acid], the “Tautomerase Inhibition pIC50” value was 8.14.

Consider `COc1cc(N2CCCC2C(=O)O)ccc1C(=O)Nc1nnc(-c2cccs2)o1` (centres unmarked) [Compound 30, (3-methoxy-4-((5-(thiophen-2-yl)-1,3,4-oxadiazol-2-yl)carbamoyl)phenyl)proline], for which the “Tautomerase Inhibition pIC50” value turned out to be 7.90.

With `COc1cc(N2CCCC(C(=O)O)C2)ccc1C(=O)Nc1nnc(-c2cccs2)o1` (centres unmarked) [Compound 31, 1-(3-methoxy-4-((5-(thiophen-2-yl)-1,3,4-oxadiazol-2-yl)carbamoyl)phenyl)piperidine-3-carboxylic Acid], the “Tautomerase Inhibition pIC50” value was found to be 8.16.

Regarding `COc1cc(N2CC3CC(C2)O3)ccc1C(=O)Nc1nnc(-c2cccs2)o1` [Compound 33, 4-(6-oxa-3-azabicyclo[3.1.1]heptan-3-yl)-2-methoxy-N-(5-(thiophen-2-yl)-1,3,4-oxadiazol-2-yl)benzamide], the “Tautomerase Inhibition pIC50” value is reported as 7.29.

Take `COc1cc(N2CCOCC2)ccc1S(=O)(=O)Nc1nnc(-c2cncs2)o1` [Compound 35, 2-methoxy-4-morpholino-N-(5-(thiazol-5-yl)-1,3,4-oxadiazol-2-yl)benzenesulfonamide]: the “Tautomerase Inhibition pIC50” value is listed as below 5.

With `COc1cc(N2CCOCC2)ccc1C(=O)N(C)c1nnc(-c2cncs2)o1` [Compound 36, 2-methoxy-N-methyl-4-morpholino-N-(5-(thiazol-5-yl)-1,3,4-oxadiazol-2-yl)benzamide], the “Tautomerase Inhibition pIC50” value is on record as below 5.

With `COc1cc(N2CCOCC2)ccc1C(=O)Nc1nnc(-c2cccs2)o1` [Compound 37, 2-methoxy-4-morpholino-N-(5-(thiophen-2-yl)-1,3,4-oxadiazol-2-yl)benzamide], the “Tautomerase Inhibition pIC50” value turned out to be 7.44.

In the case of `O=C(NCc1nnc(-c2cccs2)o1)c1ccccc1OC(F)(F)F` [Compound 41, N-((5-(thiophen-2-yl)-1,3,4-oxadiazol-2-yl)methyl)-2-(trifluoromethoxy)benzamide], the “Tautomerase Inhibition pIC50” value turned out to be 1.77.

For the molecule `O=C(NCc1nnc(-c2cccs2)o1)c1ccccc1O` [Compound 42, 2-hydroxy-N-((5-(thiophen-2-yl)-1,3,4-oxadiazol-2-yl)methyl)benzamide], the “Tautomerase Inhibition pIC50” value is listed as 3.10.

Turning to `O=C(NCc1nnc(-c2cccs2)o1)c1ccccc1Cl` [Compound 43, 2-chloro-N-((5-(thiophen-2-yl)-1,3,4-oxadiazol-2-yl)methyl)benzamide], the “Tautomerase Inhibition pIC50” value is reported as 5.09.

Turning to `O=C(NCc1nnc(-c2cccs2)o1)c1c(F)cccc1F` [Compound 45, 2,6-difluoro-N-((5-(thiophen-2-yl)-1,3,4-oxadiazol-2-yl)methyl)benzamide], the “Tautomerase Inhibition pIC50” value is below 5.

Regarding `COc1cnccc1C(=O)NCc1nnc(-c2cccs2)o1` [Compound 47, 3-methoxy-N-((5-(thiophen-2-yl)-1,3,4-oxadiazol-2-yl)methyl)isonicotinamide], the “Tautomerase Inhibition pIC50” value is below 5.
